# Measurements as given in patent US7902261B2, “Medicinal compositions for preventing or treating viral myocarditis” (Mitsubishi Tanabe Pharma Corporation, priority 1999, dated 2011).
# Structures can show the parent of a compound that is named as a salt.
# Tests used:
# IL-2 = test: Intracardiac cytokine assay (ELISA), IL-2; type: in vivo, mouse; conditions: heart ventricle at day 5; CsA 40 mg/kg/day, compound 1 10 mg/kg/day orally; mean ± SEM; control 12.79 ± 1.24
# Description: (§1) Four-week-old male DBA/2 mice were divided into 3 groups and EMC virus (10 pfu) was intraperitoneally inoculated. After inoculation, distilled water (solvent, n=8) as a control, CsA (40 mg/kg/day, n=5), and compound 1 (10 mg/kg/day, n=7) were orally administered forcibly for 5 consecutive days using a probe. Five days later, the heart was aseptically harvested from the mice, and after weighing the ventricle, homogenized in phosphate-buffered saline (PBS, 1 ml). The homogenate was centrifuged at 4° C., 1,500 g for 15 min and the supernatant (0.1 ml) was inoculated to human amnion FL cell monolayer and cultured at 37° C. for 60 min in 5% CO2. The cells were overlaid with a medium (3 ml) containing 4% fetal calf serum and 1% methylcellulose. After culture under 5% CO2-containing humidified atmosphere at 37° C. for 20 hr, the cells were fixed with acetic acid-methanol (1:2) and stained with 1% crystal violet. The plaques were counted under an inverted microscope (Circulation. 89:846-851, 1994). When the plaques are too many to count, the supernatant is appropriately diluted with Dulbecco's modified Eagle's medium (DMEM) and subjected to a similar assay. […]
# (§2) The total protein concentration of each supernatant was measured by bicinchoninic acid (BCA) method, and the ratio of the cytokine concentration to the total protein concentration was calculated (J. Am. Coll. Cardiol. 33:1400-1407, 1999). […]
# EMC virus [1] = test: Survival rate, EMC viral myocarditis in mice (Experimental Example 2); type: in vivo, DBA/2 male mice; conditions: compound 1 10 mg/kg/day orally for 14 days, n=22 (6 survived); control 0%
# Description: The effects on viral myocarditis of compound 1 and an immunosuppressant, cyclosporin A (hereinafter to be referred to as CsA), were compared. The compound 1 was dissolved in sterile distilled water and administered, and CsA was dissolved in olive oil and administered.
# Four-week-old DBA/2 male mice were divided into 3 groups, and EMC virus (10 pfu) was intraperitoneally inoculated. After inoculation, distilled water (solvent, control group, n=21), CsA (40 mg/kg/day, CsA group, n=9), and compound 1 (10 mg/kg/day, compound 1 group, n=22) were orally administered forcibly for 14 consecutive days using a probe. The survival rate of each group after 14 days was compared by Kaplan-Meier method.
# IL-12 = test: Intracardiac cytokine assay (ELISA), IL-12; type: in vivo, mouse; conditions: heart ventricle at day 5; CsA 40 mg/kg/day, compound 1 10 mg/kg/day orally; mean ± SEM; control 71.76 ± 7.37
# Description: as §1, §2
# [2] = test system: EMC (Encephalomyocarditis) virus; test: Histopathological observation of the heart (Experimental Example 1); type: in vivo, DBA/2 mice; conditions: n=8, day 5, mean ± SEM; for necrosis of myocardial cell (score 0 to 4+): control 1.9 ± 0.2; for cellular infiltration (score 0 to 4+): control 2.0 ± 0.2
# Description: (§3) Four-week-old DBA/2 mice were divided into 3 groups and EMC (Encephalomyocarditis) virus (10 pfu) was intraperitoneally inoculated. After inoculation, distilled water (solvent, n=9) as a control, compound 1 (3 mg/kg/day, n=8), and compound 1 (10 mg/kg/day, n=8) were orally administered forcibly for 5 consecutive days using a probe. Five days later, the heart was removed, and, after fixing with formalin, subjected to hematoxylin-eosin staining, based on which heart necrosis and cellular infiltration were scored as follows. • 0; no lesion, • 1+; lesion in 25% or less of the heart, • 2+; lesion in more than 25% and not more than 50% of the heart • 3+; lesion in more than 50% and not more than 75% of the heart • 4+; lesion in more than 75% and not more than 100% of the heart Results
# EMC virus [3] = test: Intracardiac virus titer (plaque assay on human amnion FL cells); type: in vivo, male DBA/2 mice; conditions: CsA 40 mg/kg/day, compound 1 10 mg/kg/day orally for 5 days; heart at day 5; mean ± SEM; control 5.18 ± 2.73 × 10^6
# Description: Four-week-old male DBA/2 mice were divided into 3 groups and EMC virus (10 pfu) was intraperitoneally inoculated. After inoculation, distilled water (solvent, n=8) as a control, CsA (40 mg/kg/day, n=5), and compound 1 (10 mg/kg/day, n=7) were orally administered forcibly for 5 consecutive days using a probe. Five days later, the heart was aseptically harvested from the mice, and after weighing the ventricle, homogenized in phosphate-buffered saline (PBS, 1 ml). The homogenate was centrifuged at 4° C., 1,500 g for 15 min and the supernatant (0.1 ml) was inoculated to human amnion FL cell monolayer and cultured at 37° C. for 60 min in 5% CO2. The cells were overlaid with a medium (3 ml) containing 4% fetal calf serum and 1% methylcellulose. After culture under 5% CO2-containing humidified atmosphere at 37° C. for 20 hr, the cells were fixed with acetic acid-methanol (1:2) and stained with 1% crystal violet. The plaques were counted under an inverted microscope (Circulation. 89:846-851, 1994). When the plaques are too many to count, the supernatant is appropriately diluted with Dulbecco's modified Eagle's medium (DMEM) and subjected to a similar assay. The test was repeated and the mean was taken. The virus titer was expressed in pfu/g heart. The statistical analysis was conducted by one way ANOVA and Fisher's protected least significant difference test.
# NO = test: Intracardiac nitric oxide (NO) assay (modified Griess method); type: in vivo, mouse; conditions: heart ventricle at day 5; CsA 40 mg/kg/day, compound 1 10 mg/kg/day orally; mean ± SEM; control 2.07 ± 0.20
# Description: as §1, with “After culture under 5% CO2-containing humidified atmosphere at 37° C. for 20 hr, the cells were fixed with acetic acid-methanol (1:2) and stained with 1% crystal violet.” left out, “1994).” for “1994). When the plaques are too many to count, the supernatant is appropriately diluted with Dulbecco's modified Eagle's medium (DMEM) and subjected to a similar assay.”
# The intracardiac NO content was measured using the same supernatant as used for the cytokine assay according to a modified method of Griess method (J. Am. Coll. Cardiol. 33:1400-1407, 1999; Anal. Biochem. 224:502-508, 1995). […] Optical density at 540 nm was measured using a microplate reader. The nitrite concentration of each sample was calculated based on the standard product. […] The intracardiac NO content was determined by dividing each nitrite concentration by the total protein concentration of each supernatant and expressed in μM/mg total protein. […]
# IFN-γ = test: Intracardiac cytokine assay (ELISA), IFN-γ; type: in vivo, mouse; conditions: heart ventricle at day 5; CsA 40 mg/kg/day, compound 1 10 mg/kg/day orally; mean ± SEM; control 151.20 ± 15.66
# Description: as §1, §2
# TNF-α = test: Intracardiac cytokine assay (ELISA), TNF-α; type: in vivo, mouse; conditions: heart ventricle at day 5; CsA 40 mg/kg/day, compound 1 10 mg/kg/day orally; mean ± SEM; control 4.11 ± 0.11
# Description: as §1, §2
# EMC virus [4] = test: Histopathological observation of the heart (Experimental Example 2); type: in vivo, male DBA/2 mice; conditions: CsA 40 mg/kg/day, compound 1 10 mg/kg/day orally for 5 days, day 5, mean ± SEM
# Description: as §3
# Four-week-old male DBA/2 mice were divided into 3 groups and EMC virus (10 pfu) was intraperitoneally inoculated. […] Five days later, the heart was harvested, and, after fixing with formalin, subjected to hematoxylin-eosin staining, based on which heart necrosis and cellular infiltration were scored according to the criteria shown in Experimental Example 1.
# The myocardial cell necrosis and cellular infiltration were independently scored by two observers and averaged. […]
# [5] = test system: EMC (Encephalomyocarditis) virus; test: Survival rate, EMC viral myocarditis in mice (Experimental Example 1); type: in vivo, DBA/2 mice; conditions: EMC virus 10 pfu i.p., control 0%
# Description: Four-week-old DBA/2 mice were divided into 3 groups, and EMC (Encephalomyocarditis) virus (10 pfu) was intraperitoneally inoculated. After inoculation, distilled water (solvent, group A, n=11) as a control, compound 1 (1 mg/kg/day, group B, n=10), and compound 1 (3 mg/kg/day, group C, n=10) were orally administered forcibly for 14 consecutive days using a probe. The survival rate of each group after 14 days was compared by Kaplan-Meier method.
smiles,measurement,setting,value
"CCCCCCCCc1ccc(CCC(N)(CO)CO)cc1 [compound 1, 2-Amino-2-(2-(4-octylphenyl)ethyl)propane-1,3-diol hydrochloride]",IL-2,IL-2,6.06 ± 0.67 ng/mg total protein
same,survival rate at day 14,EMC virus [1],27%
same,IL-12,IL-12,46.00 ± 12.82 pg/mg total protein
same,necrosis of myocardial cell (score 0 to 4+),[2]; 3 mg/kg/day orally for 5 days,1.7 ± 0.4
same,cellular infiltration (score 0 to 4+),[2]; 3 mg/kg/day orally for 5 days,1.6 ± 0.2
same,necrosis of myocardial cell (score 0 to 4+),[2]; 10 mg/kg/day orally for 5 days,1.0 ± 0.2
same,cellular infiltration (score 0 to 4+),[2]; 10 mg/kg/day orally for 5 days,1.1 ± 0.2
same,virus titer,EMC virus [3],1.23 ± 0.53 × 10^7 (NS) pfu/g heart
same,NO content,NO,1.91 ± 0.34 μM/mg total protein
same,IFN-γ,IFN-γ,108.86 ± 12.98 pg/mg total protein
same,TNF-α,TNF-α,3.72 ± 0.25 ng/mg total protein
same,necrosis of myocardial cell (score 0 to 4+),EMC virus [4]; control 1.89 ± 0.23,1.00 ± 0.19
same,cellular infiltration (score 0 to 4+),EMC virus [4]; control 2.00 ± 0.19,1.06 ± 0.19
same,survival rate at day 14,"[5]; 1 mg/kg/day orally for 14 days (group B, n=10)",10%
same,survival rate at day 14,"[5]; 3 mg/kg/day orally for 14 days (group C, n=10), p<0.05",30%
